Measured values reported in patent publication US20240269139A1, “COMPOUNDS FOR TARGETED PROTEIN DEGRADATION OF KINASES” (DANA-FARBER CANCER INSTITUTE, INC., priority 2020, published 2024).
Like-named read-outs stand apart in the source and are kept apart here.

Tested on: protein kinases (human kinome)
Type: cell-based
Conditions: for logFC CSNK1D: CSNK1D P48730-2; for logFC of FER: FER P16591-3; for logFC LCK: accession P06239-3; for logFC RPS6KA1: RPS6KA1 (Q15418-2)
[1] = Experiment wp107, direction down
[2] = experiment wp016, 1 uM, direction of change down
[3] = experiment wp016, direction of change down
[4] = experiment wp103, direction of change down
[5] = experiment wp107, direction of change down
[6] = experiment wp133, 2 hr, direction of change down
[7] = experiment wp133, 4 hr, direction of change down

SMILES: CC(C)S(=O)(=O)c1ccccc1Nc1nc(Nc2ccc(N3CCN(CCOCCNC(=O)CNc4cccc5c4C(=O)N(C4CCC(=O)NC4=O)C5=O)CC3)cc2)ncc1Cl (centres unmarked) [SK.3.91]
- logFC BUB1B (BUB1B (O60566-3), experiment wp133, 4 hr): −0.5871
- logFC (CDK9 (P50750-2) protein abundance, degrader vs DMSO, 1 uM, down): −1.356
- logFC (CDK9 (P50750-2) protein abundance, degrader vs DMSO, 2 hr, down): −0.3971
- logFC (CDK9 (P50750-2) protein abundance, degrader vs DMSO, 4 hr, down): −1.037
- logFC (CDK18 (Q07002-3), experiment wp105): −1.233
- logFC (CDK18 (Q07002-3), experiment wp114): −0.8295
- logFC CSNK1D (experiment wp114): −0.3991
- logFC CSNK1D (experiment wp160, 4 hr): −0.3373
- logFC PRKAA1 (Q13131-2) (Experiment wp016, 1 uM, direction down): −0.7977
- logFC PRKAA1 (Q13131-2) (Experiment wp016, direction down): −0.4914
- logFC CDK9 (P50750-2) (Experiment wp103): −0.7857
- logFC PRKAA1 (Q13131-2) (Experiment wp103, direction down): −0.5012
- logFC PRKAA1 (Q13131-2) (Experiment wp105, direction down): −0.4413
- logFC MAP3K12 (Q12852-2) (Experiment wp105, direction of change down): −0.6931
- logFC CDK9 (P50750-2) (Experiment wp107): −1.2
- logFC of CDK12 (Q9NYV4-2) (Experiment wp107): −1.042
- logFC PRKAA1 (Q13131-2) [1]: −0.6352
- logFC TNK2 (Q07912-3) [1]: −1.18
- logFC of CDK18 (Q07002-3) (Experiment wp114): −0.8295
- logFC TNK1 (Q13470-2) (Experiment wp114, direction of change down): −0.7394
- logFC PRKAA1 (Q13131-2) (Experiment wp133, 2 hr, direction down): −0.3804
- logFC PRKAA1 (Q13131-2) (Experiment wp133, 4 hr, direction down): −0.6752
- logFC of CDK12 (Q9NYV4-2) (Experiment wp160, 2 hr): −0.4558
- logFC ABL2 (P42684-5) (Experiment wp172): −0.7139
- logFC of ABL2 (P42684-5) (Experiment wp172): −0.7139
- logFC (FER (P16591-3), experiment wp114, direction down): −2.308
- logFC (FER (P16591-3), experiment wp172, direction down): −2.816
- logFC of FER (experiment wp114): −2.308
- logFC of FER (experiment wp172): −2.816
- logFC LCK [2]: −1.579
- logFC LCK [3]: −0.9189
- logFC LCK [4]: −1.148
- logFC LCK [5]: −1.575
- logFC LCK [6]: −0.5352
- logFC LCK [7]: −1.277
- logFC (LIMK2 (P53671-3), experiment wp105, direction down): −0.8401
- logFC of LIMK2 (LIMK2 P53671-3, experiment wp105): −0.8401
- logFC (MARK2 Q7KZI7-14, experiment wp105): −0.4159
- logFC (MARK2 Q7KZI7-14, experiment wp133, 4 hr): −0.4086
- logFC (PIP5K1A (Q99755-3), experiment wp107): −0.45
- logFC (PIP5K1A (Q99755-3), experiment wp133, 4 hr): −0.3712
- logFC (PTK2B (Q14289-2), experiment wp107, direction down): −3.126
- logFC PTK2B (PTK2B, accession Q14289-2, experiment wp107, direction of change down): −3.126
- logFC RPS6KA1 (experiment wp016, 1 uM): −0.4146
- logFC RPS6KA1 (experiment wp133, 4 hr): −0.3598
- logFC (SRC (P12931-2) protein abundance, degrader vs DMSO, 1 uM, down): −0.8428
- logFC (SRC (P12931-2) protein abundance, degrader vs DMSO, 4 hr, down): −0.6408
- logFC (STK40 (Q8N2I9-4), experiment wp105, direction down): −0.606
- logFC (STK40 Q8N2I9-4, experiment wp105): −0.606
- logFC (TNK2 (Q07912-3), experiment wp107, direction down): −1.18
- logFC CDK9 (P50750-2) (experiment wp016): −0.6515
- logFC PRKAA1 (Q13131-2) (experiment wp016): −0.4914
- logFC ABL1 (P00519-2) (experiment wp016, 1 uM): −0.3875
- logFC CDK9 (P50750-2) (experiment wp016, 1 uM): −1.356
- logFC PRKAA1 (Q13131-2) (experiment wp016, 1 uM): −0.7977
- logFC RPS6KA1 (Q15418-2) (experiment wp016, 1 uM): −0.4146
- logFC LCK (P06239-3) [2]: −1.579
- logFC LCK (P06239-3) [3]: −0.9189
- logFC PRKAA1 (Q13131-2) (experiment wp103): −0.5012
- logFC LCK (P06239-3) [4]: −1.148
- logFC ABL1 (P00519-2) (experiment wp105): −0.333
- logFC CDK9 (P50750-2) (experiment wp105): −0.6775
- logFC CDK16 (Q00536-2) (experiment wp105): −0.6346
- logFC PRKAA1 (Q13131-2) (experiment wp105): −0.4413
- logFC of CDK18 (Q07002-3) (experiment wp105): −1.233
- logFC of MARK2 (Q7KZI7-14) (experiment wp105): −0.4159
- logFC ABL1 (P00519-2) (experiment wp107): −0.4711
- logFC CDK16 (Q00536-2) (experiment wp107): −0.4701
- logFC PRKAA1 (Q13131-2) (experiment wp107): −0.6352
- logFC ULK3 (Q6PHR2-4) (experiment wp107): −1.084
- logFC LCK (P06239-3) [5]: −1.575
- logFC TGFBR1 (P36897-2) [5]: −0.5264
- logFC ULK3 (Q6PHR2-4) [5]: −1.084
- logFC CDK9 (P50750-2) (experiment wp133, 2 hr): −0.3971
- logFC PRKAA1 (Q13131-2) (experiment wp133, 2 hr): −0.3804
- logFC LCK (P06239-3) [6]: −0.5352
- logFC ABL1 (P00519-2) (experiment wp133, 4 hr): −0.3801
- logFC CDK9 (P50750-2) (experiment wp133, 4 hr): −1.037
- logFC PRKAA1 (Q13131-2) (experiment wp133, 4 hr): −0.6752
- logFC RPS6KA1 (Q15418-2) (experiment wp133, 4 hr): −0.3598
- logFC of MARK2 (Q7KZI7-14) (experiment wp133, 4 hr): −0.4086
- logFC LCK (P06239-3) [7]: −1.277
- logFC of CDK12 (Q9NYV4-2) (experiment wp160, 4 hr): −0.8448
- logFC MAP3K12 (protein MAP3K12 (Q12852-2), experiment wp105, down): −0.6931
- logFC TGFBR1 (protein TGFBR1 (P36897-2), experiment wp107, down): −0.5264
- logFC TNK1 (protein TNK1 (Q13470-2), experiment wp114, down): −0.7394
